# Reference: US9480679B2, “Methods for treating malaria, tuberculosis and MAC diseases” (priority 2009, dated 2016)
# Where “and” joins values, the source holds several entries; their conditions need not be identical. Identical values can stand only once. Like-named read-outs stand apart in the source and are kept apart here.
# Legend:
# P. falciparum NF54 [1] = experiment: In vitro P. falciparum 72 hour assay (48+24); assay type: cell-based; conditions: Plasmodium falciparum
# Description: EXAMPLE. In vitro and in vivo activity against different species of Plasmodium parasites. CEM-101 was tested against intra-erythrocytic forms of P. falciparum derived from asynchronous cultures of the strain […]. […] CEM-101 was followed for 120 h. CEM-101 has delayed activity when compared to other agents.
# In vitro P. falciparum data for CEM-101 in the 72 h Assay (48+24)
# P. falciparum NF54 [2] = experiment: In vitro P. falciparum 120 hour assay (96+24); assay type: cell-based; conditions: Plasmodium falciparum
# Description: EXAMPLE. In vitro and in vivo activity against different species of Plasmodium parasites. CEM-101 was tested against intra-erythrocytic forms of P. falciparum derived from asynchronous cultures of the strain […]. Parasite growth over 120 h was measured by the incorporation of radiolabelled [^3H]hypoxanthine (in hypoxanthine free culture medium) added after 96 h of drug incubation and 24 h prior to the termination of the test. CEM-101 was followed for 120 h. CEM-101 has delayed activity when compared to other agents.
# In vitro P. falciparum data for CEM-101 in the 120 h Assay (96+24)
# P. berghei = experiment: Murine P. berghei model, oral 1x or 4x 100 mg/kg; assay type: in vivo; conditions: mice; for Parasitized RBC over 100 (made by FACS): individual animals
# Description: EXAMPLE. CEM-101 activity in infected mice.
# EXAMPLE. CEM-101 was tested in the murine P. berghei model as described by Vennerstrom et al. Nature 430(7002):900-904 (2004), the disclosure of which is incorporated herein by reference.
# [3] = tested on: replicating M. tuberculosis; conditions: reported values; cited from earlier work
# M. avium = conditions: Bermudez 2001; cited from earlier work
# M. tuberculosis [4] = conditions: 100 mg/kg once daily for 3 weeks (Zhu 2008); cited from earlier work
# M. avium LPR ATCC 49601 = experiment: Murine model of M. avium infection, CFU in spleens and lungs; assay type: in vivo; conditions: mice, 200 mg/kg orally 5 days/week for 4 weeks; P<0.05
# [5] = tested on: replicating M. tuberculosis; experiment: Aero RLU (Relative Light Units under aerobic conditions), replicating culture; assay type: cell-based; conditions: two experiments
# [6] = tested on: replicating M. tuberculosis; experiment: Microplate Alamar Blue Assay (MABA), replicating culture; assay type: cell-based; conditions: two experiments
# M. tuberculosis [7] = conditions: reported in vitro activity; cited from earlier work
# M. avium complex = experiment: Broth dilution MIC versus M. avium complex isolates; assay type: cell-based, Mycobacterium avium
# [8] = NF54, 120 h assay (96+24), read-out: IC50 NF54
# [9] = NF54, 120 hour assay (96+24), read-out: IC50 NF54 Test 1
# [10] = NF54, 120 hour assay (96+24), read-out: IC50 NF54 Test 2
# [11] = NF54, 120 hour assay (96+24), read-out: IC50 NF54 Test 3
compound,measurement,setting,value
C[C@H]1[C@H](OC(=O)CCC(=O)O)O[C@@H]2O[C@@]3(C)CC[C@H]4[C@H](C)CC[C@@H]1[C@@]24OO3 [Artesunate],IC50,"P. falciparum NF54 [1]; NF54, 72 h, read-out: IC50 NF54 TEST 1",3 ng/mL
same,IC50,"P. falciparum NF54 [1]; NF54, 72 h, read-out: IC50 NF54 TEST 2",3.2 ng/mL
same,IC50,"P. falciparum NF54 [1]; NF54, 72 h, read-out: IC50 NF54 TEST 3",3 ng/mL
same,IC50,"P. falciparum NF54 [1]; NF54, 72 h, read-out: IC50 NF54 TEST 4",2.8 ng/mL
same,IC50,"P. falciparum NF54 [1]; NF54, 72 h, read-out: IC50 NF54 Test 1",3 ng/mL
same,IC50,"P. falciparum NF54 [1]; NF54, 72 h, read-out: IC50 NF54 Test 2",3.2 ng/mL
same,IC50,"P. falciparum NF54 [1]; NF54, 72 h, read-out: IC50 NF54 Test 3",3 ng/mL
same,IC50,"P. falciparum NF54 [1]; NF54, 72 h, read-out: IC50 NF54 Test 4",2.8 ng/mL
same,IC50,"P. falciparum NF54 [2]; NF54, 120 h, read-out: IC50 NF54",3.3 ng/mL
same,IC50,"P. falciparum NF54 [2]; NF54, 120 h, read-out: IC50 NF54 Test 1",4.2 ng/mL
same,IC50,"P. falciparum NF54 [2]; NF54, 120 h, read-out: IC50 NF54 Test 2",3.9 ng/mL
same,IC50,"P. falciparum NF54 [2]; NF54, 120 h, read-out: IC50 NF54 Test 3",3.3 ng/mL
"CC[C@H]1OC(=O)[C@H](C)[C@@H](O[C@H]2C[C@@](C)(OC)[C@@H](O)[C@H](C)O2)[C@H](C)[C@@H](O[C@@H]2O[C@H](C)C[C@H](N(C)C)[C@H]2O)[C@](C)(O)C[C@@H](C)CN(C)[C@H](C)[C@@H](O)[C@]1(C)O [Azithromycin, reference compound]",Activity (%),"P. berghei; 1 × 100 mg/kg oral, DMSO",70.39%
same,Survival,"P. berghei; 1 × 100 mg/kg oral, DMSO",14.0 days
same,Activity (%),"P. berghei; 1 × 100 mg/kg oral, HPMC",65.19%
same,Survival,"P. berghei; 1 × 100 mg/kg oral, HPMC",14.0 days
same,Activity (%),"P. berghei; 4 × 100 mg/kg oral, DMSO",99.11%
same,Cure (%),"P. berghei; 4 × 100 mg/kg oral, DMSO",0%
same,Survival,"P. berghei; 4 × 100 mg/kg oral, DMSO, survivors sacrificed on Day 31",30.0 days
same,Activity (%),"P. berghei; 4 × 100 mg/kg oral, HPMC",99.13%
same,Cure (%),"P. berghei; 4 × 100 mg/kg oral, HPMC",0%
same,Survival,"P. berghei; 4 × 100 mg/kg oral, HPMC, survivors sacrificed on Day 31",24.0 days
same,blood from treated animals parasite free or not,P. berghei; 4× 100 mg/kg p.o.,is not
same,Visual Observation (parasites in blood),"P. berghei; 4× 100 mg/kg p.o., DMSO",pos
same,Parasitized RBC over 100 (made by FACS),"P. berghei; 4× 100 mg/kg p.o., DMSO, 100 mg/kg",34.32 and 2.20 and 36.31
same,Visual Observation (parasites in blood),"P. berghei; 4× 100 mg/kg p.o., HPMC",pos
same,Parasitized RBC over 100 (made by FACS),"P. berghei; 4× 100 mg/kg p.o., HPMC",74.04
CC[C@H]1OC(=O)[C@H](C)C(=O)[C@H](C)[C@@H](O[C@@H]2O[C@H](C)C[C@H](N(C)C)[C@H]2O)[C@](C)(OC/C=C/c2cnc3ccccc3c2)C[C@@H](C)C(=O)[C@H](C)[C@H]2NC(=O)O[C@@]21C [Cethromycin],MABA MIC,[3],4000 ng/mL
same,bactericidal activity against M. avium,M. avium,lack of significant bactericidal activity
same,reduction of CFU in the lungs of mice,M. tuberculosis [4],failed to significantly reduce CFU
CCN(CC)CCCC(C)Nc1ccnc2cc(Cl)ccc12 (stereo not shown) [Chloroquine],IC50,"P. falciparum NF54 [1]; NF54, 72 h assay (48+24), read-out: IC50 NF54 TEST 1",4.4 ng/mL
same,IC50,"P. falciparum NF54 [1]; NF54, 72 h assay (48+24), read-out: IC50 NF54 TEST 2",5.4 ng/mL
same,IC50,"P. falciparum NF54 [1]; NF54, 72 h assay (48+24), read-out: IC50 NF54 TEST 3",4.4 ng/mL
same,IC50,"P. falciparum NF54 [1]; NF54, 72 h assay (48+24), read-out: IC50 NF54 TEST 4",4.8 ng/mL
same,IC50,"P. falciparum NF54 [1]; NF54, 72 hour assay (48+24), read-out: IC50 NF54 Test 1",4.4 ng/mL
same,IC50,"P. falciparum NF54 [1]; NF54, 72 hour assay (48+24), read-out: IC50 NF54 Test 2",5.4 ng/mL
same,IC50,"P. falciparum NF54 [1]; NF54, 72 hour assay (48+24), read-out: IC50 NF54 Test 3",4.4 ng/mL
same,IC50,"P. falciparum NF54 [1]; NF54, 72 hour assay (48+24), read-out: IC50 NF54 Test 4",4.8 ng/mL
same,IC50,P. falciparum NF54 [2]; [8],4.7 ng/mL
same,IC50,P. falciparum NF54 [2]; [9],4.6 ng/mL
same,IC50,P. falciparum NF54 [2]; [10],4.6 ng/mL
same,IC50,P. falciparum NF54 [2]; [11],4.7 ng/mL
"CC[C@H]1OC(=O)[C@H](C)[C@@H](O[C@H]2C[C@@](C)(OC)[C@@H](O)[C@H](C)O2)[C@H](C)[C@@H](O[C@@H]2O[C@H](C)C[C@H](N(C)C)[C@H]2O)[C@](C)(OC)C[C@@H](C)C(=O)[C@H](C)[C@@H](O)[C@]1(C)O [Clarithromycin, reference compound]",MABA MIC,[3],8000 ng/mL
same,reduction in growth of MAC LPR in the spleens and lungs compared to the late controls,M. avium LPR ATCC 49601,significant
same,Aero RLU,[5],22.46 µM and 18.82 µM
same,MIC,[6]; Mycobacterium tuberculosis,14.5 µM
same,MIC,[6],13.34 µM
same,MIC,M. tuberculosis [7],8000 ng/mL
same,MIC,M. avium complex; Mycobacterium avium,128000 ng/mL
same,MIC,"M. avium complex; Mycobacterium avium, isolate MAC 101, clarithromycin susceptible, read-out: MIC",125 ng/mL
same,MIC,"M. avium complex; Mycobacterium avium, isolate MAC 103, clarithromycin resistant, read-out: MIC",64000 ng/mL
same,MIC,"M. avium complex; Mycobacterium avium, isolate MAC 108, clarithromycin resistant, read-out: MIC",64000 ng/mL
same,MIC,"M. avium complex; Mycobacterium avium, isolate MAC 110, clarithromycin resistant, read-out: MIC",64000 ng/mL
same,MIC,"M. avium complex; Mycobacterium avium, isolate MAC 216, clarithromycin resistant, read-out: MIC",32000 ng/mL
same,MIC,"M. avium complex; Mycobacterium avium, isolate MAC 309, clarithromycin resistant, read-out: MIC",64000 ng/mL
same,MIC,"M. avium complex; Mycobacterium avium, isolate MAC 320, clarithromycin resistant, read-out: MIC",64000 ng/mL
same,MIC,"M. avium complex; Mycobacterium avium, isolate MAC 623, clarithromycin resistant, read-out: MIC",64000 ng/mL
same,MIC,"M. avium complex; Mycobacterium avium, isolate MAC 625, clarithromycin resistant, read-out: MIC",64000 ng/mL
same,MIC,"M. avium complex; Mycobacterium avium, isolate MAC 643, clarithromycin resistant, read-out: MIC",64000 ng/mL
same,MIC,"M. avium complex; Mycobacterium avium, isolate MAC 1408, clarithromycin susceptible, read-out: MIC",250 ng/mL
same,MIC,"M. avium complex; Mycobacterium avium, isolate MAC 3404.4, clarithromycin susceptible, read-out: MIC",125 ng/mL
same,MIC,"M. avium complex; Mycobacterium avium, isolate MAC 9141, clarithromycin susceptible, read-out: MIC",250 ng/mL
same,MIC,"M. avium complex; Mycobacterium avium, isolate MAC FAR, clarithromycin susceptible, read-out: MIC",125 ng/mL
same,MIC,"M. avium complex; Mycobacterium avium, isolate MAC GRL, clarithromycin susceptible, read-out: MIC",2000 ng/mL
same,MIC,"M. avium complex; Mycobacterium avium, isolate MAC KAL, clarithromycin susceptible, read-out: MIC",8000 ng/mL
same,MIC,"M. avium complex; Mycobacterium avium, isolate MAC KZL, clarithromycin susceptible, read-out: MIC",1000 ng/mL
same,MIC,"M. avium complex; Mycobacterium avium, isolate MAC Pry, clarithromycin resistant, read-out: MIC",64000 ng/mL
same,MIC,"M. avium complex; Mycobacterium avium, isolate MAC SMT, clarithromycin susceptible, read-out: MIC",250 ng/mL
same,MIC,"M. avium complex; Mycobacterium avium, isolate MAC TEL, clarithromycin susceptible, read-out: MIC",2000 ng/mL
same,MIC,"M. avium complex; Mycobacterium avium, isolate MAC TRY, clarithromycin susceptible, read-out: MIC",500 ng/mL
same,MIC,"M. avium complex; isolate MAC 224, clarithromycin resistant",128000 ng/mL
CCC[C@@H]1C[C@@H](C(=O)N[C@@H]([C@H]2O[C@H](SC)[C@H](O)[C@@H](O)[C@H]2O)[C@H](C)Cl)N(C)C1 [Clindamycin],IC50,P. falciparum NF54 [2]; [8],5.3 ng/mL
same,IC50,P. falciparum NF54 [2]; [9],< 7.8 ng/mL
same,IC50,P. falciparum NF54 [2]; [10],5.3 ng/mL
same,IC50,P. falciparum NF54 [2]; [11],5.3 ng/mL
same,Cure (%),"P. berghei; 4 × 100 mg/kg oral, DMSO",0%
same,Cure (%),"P. berghei; 4 × 100 mg/kg oral, HPMC",0%
CC[C@H]1OC(=O)[C@H](C)C(=O)[C@H](C)[C@@H](O[C@@H]2O[C@H](C)C[C@H](N(C)C)[C@H]2O)[C@](C)(OC)C[C@@H](C)C(=O)[C@H](C)[C@H]2N(CCCCn3cnc(-c4cccnc4)c3)C(=O)O[C@]12C [telithromycin],MABA MIC,[3],128000 ng/mL
same,bactericidal activity against M. avium,M. avium,lack of significant bactericidal activity
